In patent US9085576B2 (AMGEN INC., priority 2013, dated 2015):

Key:
[1] = target: Beta Secretase enzyme (BACE) (Homo sapiens (Human), UniProt P56817); experiment: In vitro enzymatic BACE FRET assay; format: biochemical; settings: read-out: BACE1 Enzyme assay IC50
BACE = BACE (Homo sapiens (Human), UniProt P56817); experiment: In vitro BACE cell-based assay (Aβ40 in conditioned medium, sandwich ELISA)
Cathepsin D (Cat D) = Cathepsin D (Cat D) (Homo sapiens (Human), UniProt P07339); experiment: In vitro enzymatic Cathepsin D (Cat D) FRET assay; format: biochemical; settings: read-out: CatD IC50
Chain of Cathepsin D (Cat D) (P07339 65-412, species assumed): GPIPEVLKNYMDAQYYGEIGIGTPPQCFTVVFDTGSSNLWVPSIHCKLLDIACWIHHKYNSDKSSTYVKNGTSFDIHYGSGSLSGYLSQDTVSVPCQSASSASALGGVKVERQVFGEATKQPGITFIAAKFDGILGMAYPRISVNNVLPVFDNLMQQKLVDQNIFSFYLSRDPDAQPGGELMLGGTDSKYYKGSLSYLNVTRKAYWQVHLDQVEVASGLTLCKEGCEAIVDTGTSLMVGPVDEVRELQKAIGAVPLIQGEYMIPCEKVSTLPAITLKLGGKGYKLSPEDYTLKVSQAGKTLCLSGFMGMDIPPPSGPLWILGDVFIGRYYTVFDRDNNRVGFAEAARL

Chain of BACE (P56817 46-501, species assumed): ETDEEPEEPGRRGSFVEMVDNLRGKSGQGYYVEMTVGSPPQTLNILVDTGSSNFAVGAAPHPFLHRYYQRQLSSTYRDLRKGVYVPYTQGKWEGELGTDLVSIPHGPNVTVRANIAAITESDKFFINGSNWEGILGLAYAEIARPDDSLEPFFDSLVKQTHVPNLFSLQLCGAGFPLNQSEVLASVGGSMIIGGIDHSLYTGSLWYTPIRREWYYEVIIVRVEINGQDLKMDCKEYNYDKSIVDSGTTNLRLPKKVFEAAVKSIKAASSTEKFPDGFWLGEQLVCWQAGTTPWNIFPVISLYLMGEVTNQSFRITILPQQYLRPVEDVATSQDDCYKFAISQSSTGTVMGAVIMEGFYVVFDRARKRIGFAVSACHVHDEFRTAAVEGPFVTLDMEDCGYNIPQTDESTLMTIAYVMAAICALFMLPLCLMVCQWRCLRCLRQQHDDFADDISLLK
Chain of Beta Secretase enzyme (BACE) (P56817 46-501): as the sequence (P56817 46-501, species assumed) above

Cc1cc(OCC(F)(F)F)cnc1C(=O)Nc1ccc(F)c([C@@]2(C(F)F)N=C(N)O[C@@H]3C[C@@H]32)c1 [Example 189, N-(3-((1R,5S,6R)-3-amino-5-(difluoromethyl)-2-oxa-4-azabicyclo[4.1.0]hept-3-en-5-yl)-4-fluorophenyl)-3-methyl-5-(2,2,2-trifluoroethoxy) picolinamide]
IC50 [1]: 0.12 µM
IC50 (BACE): 0.386 µM
IC50 (Cathepsin D (Cat D)): 770 µM

Cc1ccc(C(=O)Nc2ccc(F)c([C@@]3(C(F)F)N=C(N)O[C@@H]4C[C@@H]43)c2)nc1 [Example 190, N-(3-((1R,5S,6R)-3-amino-5-(difluoromethyl)-2-oxa-4-azabicyclo[4.1.0]hept-3-en-5-yl)-4-fluorophenyl)-5-methylpicolinamide]
IC50 [1]: 0.151 µM
IC50 (BACE): 0.0735 µM
IC50 (Cathepsin D (Cat D)): 1470 µM

CC(F)(F)Oc1ccc(C(=O)Nc2ccc(F)c([C@@]3(C(F)F)N=C(N)O[C@@H]4C[C@@H]43)c2)nc1 [Example 191, N-(3-((1R,5S,6R)-3-amino-5-(difluoromethyl)-2-oxa-4-azabicyclo[4.1.0]hept-3-en-5-yl)-4-fluorophenyl)-5-(1,1-difluoroethoxy) picolinamide]
IC50 [1]: 0.415 µM
IC50 (BACE): 0.536 µM
IC50 (Cathepsin D (Cat D)): 1070 µM

COc1cnc(C(=O)Nc2ccc(F)c([C@@]3(CF)N=C(N)O[C@@H]4C[C@@H]43)c2)cn1 [Example 194, N-(3-((1R,5S,6R)-3-amino-5-(fluoromethyl)-2-oxa-4-azabicyclo[4.1.0]hept-3-en-5-yl)-4-fluorophenyl)-5-methoxypyrazine-2-carboxamide]
IC50 [1]: 0.143 µM
IC50 (BACE): 0.027 µM
IC50 (Cathepsin D (Cat D)): 1230 µM

COc1ccc(C(=O)Nc2ccc(F)c([C@@]3(CF)N=C(N)O[C@@H]4C[C@@H]43)c2)nc1 [Example 195, N-(3-((1R,5S,6R)-3-amino-5-(fluoromethyl)-2-oxa-4-azabicyclo[4.1.0]hept-3-en-5-yl)-4-fluorophenyl)-5-methoxypicolinamide]
IC50 [1]: 0.124 µM
IC50 (BACE): 0.0156 µM
IC50 (Cathepsin D (Cat D)): 759 µM

Cc1cc(C#N)cnc1C(=O)Nc1ccc(F)c([C@@]2(CF)N=C(N)O[C@@H]3C[C@@H]32)c1 [Example 196, N-(3-((1R,5S,6R)-3-amino-5-(fluoromethyl)-2-oxa-4-azabicyclo[4.1.0]hept-3-en-5-yl)-4-fluorophenyl)-5-cyano-3-methylpicolinamide]
IC50 [1]: 0.0324 µM
IC50 (BACE): 0.009 µM
IC50 (Cathepsin D (Cat D)): 703 µM

C#CCOc1cnc(C(=O)Nc2ccc(F)c([C@@]3(CF)N=C(N)O[C@@H]4C[C@@H]43)c2)cn1 [Example 197, N-(3-((1R,5S,6R)-3-amino-5-(fluoromethyl)-2-oxa-4-azabicyclo[4.1.0]hept-3-en-5-yl)-4-fluorophenyl)-5-(prop-2-yn-1-yloxy)pyrazine-2-carboxamide]
IC50 [1]: 0.0066 µM
IC50 (BACE): 0.0023 µM
IC50 (Cathepsin D (Cat D)): 260 µM

Cc1cc(Cl)cnc1C(=O)Nc1ccc(F)c([C@@]2(CF)N=C(N)O[C@@H]3C[C@@H]32)c1 [Example 198, N-(3-((1R,5S,6R)-3-amino-5-(fluoromethyl)-2-oxa-4-azabicyclo[4.1.0]hept-3-en-5-yl)-4-fluorophenyl)-5-chloro-3-methylpicolinamide]
IC50 [1]: 0.0338 µM
IC50 (BACE): 0.0152 µM
IC50 (Cathepsin D (Cat D)): 349 µM

Cc1c(C(=O)Nc2ccc(F)c([C@@]3(CF)N=C(N)O[C@@H]4C[C@@H]43)c2)nc2ccc(Cl)cn12 [Example 200, N-(3-((1R,5S,6R)-3-amino-5-(fluoromethyl)-2-oxa-4-azabicyclo[4.1.0]hept-3-en-5-yl)-4-fluorophenyl)-6-chloro-3-methylimidazo[1,2-a]pyridine-2-carboxamide]
IC50 [1]: 0.189 µM
IC50 (BACE): 0.025 µM
IC50 (Cathepsin D (Cat D)): 465 µM

NC1=N[C@](CF)(c2cc(NC(=O)c3cc4ccccc4cn3)ccc2F)[C@H]2C[C@H]2O1 [Example 202, N-(3-((1R,5S,6R)-3-amino-5-(fluoromethyl)-2-oxa-4-azabicyclo[4.1.0]hept-3-en-5-yl)-4-fluorophenyl) isoquinoline-3-carboxamide]
IC50 [1]: 0.499 µM
IC50 (BACE): 0.159 µM
IC50 (Cathepsin D (Cat D)): 430 µM

CC#CCOc1ccc(C(=O)Nc2ccc(F)c([C@@]3(CF)N=C(N)O[C@@H]4C[C@@H]43)c2)nc1 [Example 203, N-(3-((1R,5S,6R)-3-amino-5-(fluoromethyl)-2-oxa-4-azabicyclo[4.1.0]hept-3-en-5-yl)-4-fluorophenyl)-5-(but-2-yn-1-yloxy)picolinamide]
IC50 [1]: 0.0089 µM
IC50 (BACE): 0.0039 µM
IC50 (Cathepsin D (Cat D)): 303 µM

N#Cc1ccc(C(=O)Nc2cnc(F)c([C@@]3(CF)N=C(N)O[C@@H]4C[C@@H]43)c2)nc1 [Example 204, N-(5-((1R,5S,6R)-3-amino-5-(fluoromethyl)-2-oxa-4-azabicyclo[4.1.0]hept-3-en-5-yl)-6-fluoropyridin-3-yl)-5-cyanopicolinamide]
IC50 [1]: 0.145 µM
IC50 (BACE): 0.0335 µM
IC50 (Cathepsin D (Cat D)): 294 µM

C#CCOc1cnc(C(=O)Nc2cnc(F)c([C@@]3(CF)N=C(N)O[C@@H]4C[C@@H]43)c2)cn1 [Example 206, N-(5-((1R,5S,6R)-3-amino-5-(fluoromethyl)-2-oxa-4-azabicyclo[4.1.0]hept-3-en-5-yl)-6-fluoropyridin-3-yl)-5-(prop-2-yn-1-yloxy)pyrazine-2-carboxamide]
IC50 [1]: 0.0094 µM
IC50 (BACE): 0.0064 µM
IC50 (Cathepsin D (Cat D)): 311 µM

NC1=N[C@](CF)(c2cc(NC(=O)c3nn(C(F)F)cc3Cl)cnc2F)[C@H]2C[C@H]2O1 [Example 207, N-(5-((1R,5S,6R)-3-amino-5-(fluoromethyl)-2-oxa-4-azabicyclo[4.1.0]hept-3-en-5-yl)-6-fluoropyridin-3-yl)-4-chloro-1-(difluoromethyl)-1H-pyrazole-3-carboxamide]
IC50 [1]: 0.0578 µM
IC50 (BACE): 0.0176 µM
IC50 (Cathepsin D (Cat D)): 370 µM

NC1=N[C@@](c2cc(NC(=O)c3ncc(Cl)cc3Cl)ccc2Cl)(C(F)F)[C@H]2C[C@H]2O1 [Example 211, N-(3-((1R,5S,6R)-3-amino-5-(difluoromethyl)-2-oxa-4-azabicyclo[4.1.0]hept-3-en-5-yl)-4-chlorophenyl)-3,5-dichloropicolinamide]
IC50 [1]: 0.0126 µM
IC50 (BACE): 0.0147 µM
IC50 (Cathepsin D (Cat D)): > 400 µM

Cc1cc(OC(F)F)cnc1C(=O)Nc1ccc(Cl)c([C@@]2(C(F)F)N=C(N)O[C@@H]3C[C@@H]32)c1 [Example 212, N-(3-((1R,5S,6R)-3-amino-5-(difluoromethyl)-2-oxa-4-azabicyclo[4.1.0]hept-3-en-5-yl)-4-chlorophenyl)-5-(difluoromethoxy)-3-methylpicolinamide]
IC50 [1]: 0.0469 µM
IC50 (BACE): 0.0385 µM
IC50 (Cathepsin D (Cat D)): 928 µM

Cc1cc(OC(F)F)cnc1C(=O)Nc1ccc(Cl)c([C@]2(C(F)F)N=C(N)O[C@H]3C[C@H]32)c1 [Example 213, N-(3-((1S,5R,6S)-3-amino-5-(difluoromethyl)-2-oxa-4-azabicyclo[4.1.0]hept-3-en-5-yl)-4-chlorophenyl)-5-(difluoromethoxy)-3-methylpicolinamide]
IC50 [1]: 2.42 µM
IC50 (BACE): 1.31 µM
IC50 (Cathepsin D (Cat D)): 1130 µM

NC1=N[C@@](c2cc(NC(=O)c3ccc(Br)cn3)ccc2Cl)(C(F)F)[C@H]2C[C@H]2O1 [Example 214, N-(3-((1R,5S,6R)-3-amino-5-(difluoromethyl)-2-oxa-4-azabicyclo[4.1.0]hept-3-en-5-yl)-4-chlorophenyl)-5-bromopicolinamide]
IC50 [1]: 0.0093 µM
IC50 (BACE): 0.0132 µM
IC50 (Cathepsin D (Cat D)): 459 µM

CC#CCOc1cnc(C(=O)Nc2ccc(Cl)c([C@@]3(C(F)F)N=C(N)O[C@@H]4C[C@@H]43)c2)cn1 [Example 215, N-(3-((1R,5S,6R)-3-amino-5-(difluoromethyl)-2-oxa-4-azabicyclo[4.1.0]hept-3-en-5-yl)-4-chlorophenyl)-5-(but-2-yn-1-yloxy)pyrazine-2-carboxamide]
IC50 [1]: 0.0017 µM
IC50 (BACE): 0.0043 µM
IC50 (Cathepsin D (Cat D)): 1930 µM

Cc1cc(C(F)(F)F)cnc1C(=O)Nc1ccc(Cl)c([C@@]2(C(F)F)N=C(N)O[C@@H]3C[C@@H]32)c1 [Example 217, N-(3-((1R,5S,6R)-3-amino-5-(difluoromethyl)-2-oxa-4-azabicyclo[4.1.0]hept-3-en-5-yl)-4-chlorophenyl)-3-methyl-5-(trifluoromethyl) picolinamide]
IC50 [1]: 0.0151 µM
IC50 (BACE): 0.0116 µM
IC50 (Cathepsin D (Cat D)): 206 µM

C#CCOc1cnc(C(=O)Nc2ccc(Cl)c([C@@]3(C(F)F)N=C(N)O[C@@H]4C[C@@H]43)c2)cn1 [Example 221, N-(3-((1R,5S,6R)-3-amino-5-(difluoromethyl)-2-oxa-4-azabicyclo[4.1.0]hept-3-en-5-yl)-4-chlorophenyl)-5-(prop-2-yn-1-yloxy)pyrazine-2-carboxamide]
IC50 [1]: 0.0027 µM
IC50 (BACE): 0.0033 µM
IC50 (Cathepsin D (Cat D)): 51.1 µM

Cc1cc(C#N)cnc1C(=O)Nc1ccc(Cl)c([C@@]2(C(F)F)N=C(N)O[C@@H]3C[C@@H]32)c1 [Example 223, N-(3-((1R,5S,6R)-3-amino-5-(difluoromethyl)-2-oxa-4-azabicyclo[4.1.0]hept-3-en-5-yl)-4-chlorophenyl)-5-cyano-3-methylpicolinamide]
IC50 [1]: 0.0184 µM
IC50 (BACE): 0.0314 µM
IC50 (Cathepsin D (Cat D)): 541 µM

NC1=N[C@@](c2cc(NC(=O)c3nn(C(F)F)cc3Cl)ccc2Cl)(C(F)F)[C@H]2C[C@H]2O1 [Example 224, N-(3-((1R,5S,6R)-3-amino-5-(difluoromethyl)-2-oxa-4-azabicyclo[4.1.0]hept-3-en-5-yl)-4-chlorophenyl)-4-chloro-1-(difluoromethyl)-1H-pyrazole-3-carboxamide]
IC50 [1]: 0.0105 µM
IC50 (BACE): 0.0252 µM
IC50 (Cathepsin D (Cat D)): 510 µM

COc1cnc(C(=O)Nc2ccc(Cl)c([C@@]3(C(F)F)N=C(N)O[C@@H]4C[C@@H]43)c2)cn1 [Example 226, N-(3-((1R,5S,6R)-3-amino-5-(difluoromethyl)-2-oxa-4-azabicyclo[4.1.0]hept-3-en-5-yl)-4-chlorophenyl)-5-methoxypyrazine-2-carboxamide]
IC50 [1]: 0.0895 µM
IC50 (BACE): 0.0394 µM
IC50 (Cathepsin D (Cat D)): 363 µM
